This note sets out measurements from US11292801B2, “Calpain modulators and therapeutic uses thereof” (Blade Therapeutics, Inc., priority 2016, dated 2022).

The target in one experiment is T1, Human Calpain 2/NS1 (Homo sapiens, UniProt P17655).
T1 sequence (P17655 1-700): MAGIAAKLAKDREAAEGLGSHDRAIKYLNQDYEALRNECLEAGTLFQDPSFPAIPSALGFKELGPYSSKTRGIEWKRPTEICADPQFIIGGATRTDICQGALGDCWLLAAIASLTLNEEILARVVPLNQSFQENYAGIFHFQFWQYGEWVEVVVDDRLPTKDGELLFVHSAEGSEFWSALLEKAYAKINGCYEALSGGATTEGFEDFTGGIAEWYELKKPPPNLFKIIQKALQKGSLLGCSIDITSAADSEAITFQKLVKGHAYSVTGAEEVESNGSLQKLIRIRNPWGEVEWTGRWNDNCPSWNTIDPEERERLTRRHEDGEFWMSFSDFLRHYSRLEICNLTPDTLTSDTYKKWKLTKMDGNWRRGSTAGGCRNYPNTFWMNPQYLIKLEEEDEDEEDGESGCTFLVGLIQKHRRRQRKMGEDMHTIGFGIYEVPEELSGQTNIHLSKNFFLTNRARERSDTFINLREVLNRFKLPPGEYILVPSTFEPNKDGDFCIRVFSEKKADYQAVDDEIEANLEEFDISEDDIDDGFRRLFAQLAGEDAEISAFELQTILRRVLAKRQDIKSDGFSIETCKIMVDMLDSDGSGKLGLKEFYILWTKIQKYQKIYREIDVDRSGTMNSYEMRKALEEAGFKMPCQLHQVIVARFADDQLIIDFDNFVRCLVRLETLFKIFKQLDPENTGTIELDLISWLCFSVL
T1 sequence (P04632 1-268 partner): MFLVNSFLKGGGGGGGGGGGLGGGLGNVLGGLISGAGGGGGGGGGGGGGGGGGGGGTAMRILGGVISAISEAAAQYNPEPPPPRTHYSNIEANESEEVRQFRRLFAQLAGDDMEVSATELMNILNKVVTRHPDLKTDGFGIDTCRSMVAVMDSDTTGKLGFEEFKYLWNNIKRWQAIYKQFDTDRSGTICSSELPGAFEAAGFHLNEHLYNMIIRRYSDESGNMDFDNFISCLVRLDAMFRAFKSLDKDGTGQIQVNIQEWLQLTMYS
Briefly: Biochemical inhibition of calpain 2, continuous fluorescence (FRET substrate) assay. To be noted: mean, read-out: Human Calpain 2/NS1 IC50 (nM)_MEAN. The method in brief:
(§1)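 IC50 values come from 4-parameter fits of progress-curve rates (1-5 min slopes) against log inhibitor concentration. Calpain and inhibitor premixed at ambient 25C in Tris pH ~7.5/NaCl/DTT buffer, then CaCl2 and FRET substrate added to activate; 5-FAM fluorescence (ex 490/em 520) followed 10 min.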

The next experiment concerns the target T2, Human Calpain 1/NS1 (Homo sapiens, UniProt P07384).
T2 sequence (P07384 1-714): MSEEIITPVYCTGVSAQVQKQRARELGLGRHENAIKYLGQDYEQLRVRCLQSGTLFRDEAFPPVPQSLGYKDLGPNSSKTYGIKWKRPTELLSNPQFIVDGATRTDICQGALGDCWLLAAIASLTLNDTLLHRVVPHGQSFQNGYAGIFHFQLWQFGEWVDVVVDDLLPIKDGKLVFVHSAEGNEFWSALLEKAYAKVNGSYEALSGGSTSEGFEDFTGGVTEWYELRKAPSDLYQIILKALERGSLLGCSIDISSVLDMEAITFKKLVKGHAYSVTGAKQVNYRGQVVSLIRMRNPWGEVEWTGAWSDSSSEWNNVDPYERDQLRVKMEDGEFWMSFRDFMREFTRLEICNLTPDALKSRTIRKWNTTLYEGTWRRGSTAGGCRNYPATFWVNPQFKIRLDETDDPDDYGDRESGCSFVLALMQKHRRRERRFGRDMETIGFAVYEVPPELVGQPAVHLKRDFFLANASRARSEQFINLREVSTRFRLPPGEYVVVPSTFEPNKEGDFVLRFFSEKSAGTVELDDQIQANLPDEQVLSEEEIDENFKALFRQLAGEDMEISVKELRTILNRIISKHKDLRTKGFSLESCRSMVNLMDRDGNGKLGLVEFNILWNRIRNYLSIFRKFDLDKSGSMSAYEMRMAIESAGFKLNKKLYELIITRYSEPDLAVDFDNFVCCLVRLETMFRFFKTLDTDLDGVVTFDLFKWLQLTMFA
T2 sequence (P04632 1-268 partner): T1 sequence (P04632 1-268 partner)
Nature of the experiment: Biochemical inhibition of calpain 1, continuous fluorescence (FRET substrate) assay. The settings on record: mean, read-out: Human Calpain 1/NS1 IC50 (nM)_MEAN. In a few lines:
as §1

A further experiment addresses T3, Human Calpain 9/NS1 (Homo sapiens, UniProt O14815).
T3 sequence (O14815 1-690): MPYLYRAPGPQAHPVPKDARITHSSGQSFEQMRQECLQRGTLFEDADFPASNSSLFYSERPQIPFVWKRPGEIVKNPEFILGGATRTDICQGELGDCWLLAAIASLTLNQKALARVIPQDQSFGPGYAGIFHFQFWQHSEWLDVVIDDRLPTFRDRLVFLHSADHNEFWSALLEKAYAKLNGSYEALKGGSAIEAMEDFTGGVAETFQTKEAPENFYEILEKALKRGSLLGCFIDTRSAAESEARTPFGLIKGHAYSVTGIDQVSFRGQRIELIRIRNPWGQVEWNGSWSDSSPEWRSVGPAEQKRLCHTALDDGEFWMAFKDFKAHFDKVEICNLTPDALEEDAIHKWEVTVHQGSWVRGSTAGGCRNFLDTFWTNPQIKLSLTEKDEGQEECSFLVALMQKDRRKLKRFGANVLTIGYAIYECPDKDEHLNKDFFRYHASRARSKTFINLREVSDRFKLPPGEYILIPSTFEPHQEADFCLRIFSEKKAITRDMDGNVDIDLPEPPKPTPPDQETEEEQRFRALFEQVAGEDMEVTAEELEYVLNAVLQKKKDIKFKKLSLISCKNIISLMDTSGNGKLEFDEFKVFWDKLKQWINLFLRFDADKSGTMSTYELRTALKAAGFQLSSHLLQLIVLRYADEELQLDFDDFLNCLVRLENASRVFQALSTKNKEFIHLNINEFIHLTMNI
T3 sequence (P04632 1-268 partner): T1 sequence (P04632 1-268 partner)
Nature of the experiment: Biochemical inhibition of calpain 9, continuous fluorescence (FRET substrate) assay. The settings on record: mean, read-out: Human Calpain 9/NS1 IC50 (nM)_MEAN. In a few lines:
as §1

Take `O=C[C@@H]1Cc2ccccc2CCCCCCOc2ccccc2C(=O)N1` [Compound 20, (S)-19-Oxo-6,7,8,9,10,11,16,17,18,19-decahydrodibenzo[b,h][1]oxa[5]aza-cyclopentadecine-17-carbaldehyde]: the IC50 at Human Calpain 2/NS1 was under 3000 nM; on Human Calpain 1/NS1 it was 3000 to 10000 nM; at Human Calpain 9/NS1, under 3000 nM.

Regarding `O=C[C@@H]1CC=CCCCOCc2ccccc2C(=O)N1` [Compound 41, (S)-11-Oxo-1,3,4,5,8,9,10,11-octahydrobenzo[c][1]oxa[6]azacyclotridecine-9-carbaldehyde], the IC50 on Human Calpain 2/NS1 is under 3000 nM; on Human Calpain 1/NS1, over 10000 nM; at Human Calpain 9/NS1, under 3000 nM.

In the case of `O=C[C@@H]1Cc2ccc(cc2)CCCCc2ccc3nn(cc3c2)-c2ncccc2C(=O)N1` [Compound 76, (1^3Z,1^4Z,5S)-3-oxo-1^2H-4-aza-1(2,5)-indazola-2(2,3)-pyridina-7(1,4)-benzenacycloundecaphane-5-carbaldehyde], the IC50 on Human Calpain 2/NS1, at Human Calpain 1/NS1 and on Human Calpain 9/NS1 was under 3000 nM each time.

Regarding `COc1ccc(CCNC(=O)C(=O)C2CCCCOCCOCc3ccccc3C(=O)N2)cc1OC` (stereo not drawn) [Compound 123, N-(3,4-dimethoxyphenethyl)-2-oxo-2-(12-oxo-1,3,4,6,7,8,9,10,11,12-decahydrobenzo[f][1,4]dioxa[9]azacyclotetradecin-10-yl)acetamide], the IC50 is over 10000 nM on Human Calpain 2/NS1, over 10000 nM at Human Calpain 1/NS1 and 3000 to 10000 nM on Human Calpain 9/NS1.

For `O=C(NCc1ccc(F)cc1)C(=O)C1CCCCOCCOCc2ccccc2C(=O)N1` (stereo not drawn) [Compound 98, N-(4-fluorobenzyl)-2-oxo-2-(12-oxo-1,3,4,6,7,8,9,10,11,12-decahydrobenzo[f][1,4]dioxa[9]azacyclotetradecin-10-yl)acetamide], the IC50 at Human Calpain 2/NS1 is under 3000 nM; at Human Calpain 1/NS1, over 10000 nM; at Human Calpain 9/NS1 it was under 3000 nM.

For `O=C[C@@H]1CC=CCCOc2ccnc(n2)-c2ccccc2C(=O)N1` [Compound 39, (S)-3-Oxo-11-oxa-4-aza-1(2,4)-pyrimidina-2(1,2)-benzenacyclo undecaphan-7-ene-5-carbaldehyde], the IC50 at Human Calpain 2/NS1 is under 3000 nM; at Human Calpain 1/NS1, 3000 to 10000 nM; at Human Calpain 9/NS1, under 3000 nM.

On to `O=C(NC1CC1)C(=O)[C@@H]1C/C=C/COCCOCc2ccccc2C(=O)N1` [Compound 79, (S,E)-N-cyclopropyl-2-oxo-2-(12-oxo-1,3,4,6,9,10,11,12-octahydrobenzo[f][1,4]dioxa[9]azacyclotetradecin-10-yl)acetamide], for which the results for the IC50 on Human Calpain 2/NS1, at Human Calpain 1/NS1 and at Human Calpain 9/NS1 were over 10000 nM, over 10000 nM and 3000 to 10000 nM, respectively.

For `C[C@H](NC(=O)C(=O)C1CCCCOCCOCc2ccccc2C(=O)N1)c1cccnc1` (stereo partly drawn) [Compound 126, 2-Oxo-2-(12-oxo-1,3,4,6,7,8,9,10,11,12-decahydrobenzo[f][1,4]dioxa[9]aza-cyclotetradecin-10-yl)-N—((S)-1-(pyridin-3-yl)ethyl)acetamide], the IC50 at Human Calpain 2/NS1, on Human Calpain 1/NS1 and on Human Calpain 9/NS1 was over 10000 nM throughout.

`NC(=O)C(O)[C@@H]1CCCCCOc2ccnc(n2)-c2ccccc2C(=O)N1` (stereo partly drawn) [Compound 147]: the IC50 at Human Calpain 2/NS1, on Human Calpain 1/NS1 and on Human Calpain 9/NS1 was over 10000 nM each time.

Turning to `NC(=O)C(=O)[C@@H]1CCCCCOc2cccc(c2)-c2ncccc2C(=O)N1` [Compound 130, (S)-2-oxo-2-(11-oxo-3-oxa-10-aza-1(2,3)-pyridina-2(1,3)-benzena-cycloundecaphane-9-yl)acetamide], the IC50 at Human Calpain 2/NS1, on Human Calpain 1/NS1 and at Human Calpain 9/NS1 was under 3000 nM in each case.

Turning to `COCCOCCOCCNC(=O)C(=O)C1CCCCOCCOCc2ccccc2C(=O)N1` (stereo not drawn) [Compound 122, N-(2-(2-(2-methoxyethoxy)ethoxy)ethyl)-2-oxo-2-(12-oxo-1,3,4,6,7,8,9,10,11,12-decahydrobenzo[f][1,4]dioxa[9]azacyclotetradecin-10-yl)acetamide], the IC50 at Human Calpain 2/NS1, on Human Calpain 1/NS1 and at Human Calpain 9/NS1 was over 10000 nM in each case.

With `COc1ccc(CNC(=O)C(=O)C2CCCCOCCOCc3ccccc3C(=O)N2)cc1` (stereo not drawn) [Compound 100, N-(4-methoxybenzyl)-2-oxo-2-(12-oxo-1,3,4,6,7,8,9,10,11,12-decahydrobenzo[f][1,4]dioxa[9]azacyclotetradecin-10-yl)acetamide], the IC50 at Human Calpain 2/NS1 is 3000 to 10000 nM; on Human Calpain 1/NS1, over 10000 nM; on Human Calpain 9/NS1, under 3000 nM.

In the case of `O=C[C@@H]1CC=CCCOc2cccc(c2)-c2ccccc2C(=O)N1` [Compound 29, (S)-11-Oxo-3-oxa-10-aza-1(1,2),2(1,3)-dibenzenacycloundecaphan-6-ene-9-carbaldehyde], the IC50 on Human Calpain 2/NS1, on Human Calpain 1/NS1 and at Human Calpain 9/NS1 was under 3000 nM in each case.

As for `CCNC(=O)C(=O)[C@@H]1CCCCCCCCCCc2ccccc2C(=O)N1` [Compound 34, (S)—N-ethyl-2-oxo-2-(1-oxo-2,3,4,5,6,7,8,9,10,11,12,13-dodecahydro-1h-benzo[c][1]azacyclopentadecin-3-yl)acetamide], the IC50 on Human Calpain 2/NS1, at Human Calpain 1/NS1 and at Human Calpain 9/NS1 was over 10000 nM each time.

Consider `O=C(NCc1c(F)cccc1Cl)C(=O)C1CCCCOCCOCc2ccccc2C(=O)N1` (stereo not drawn) [Compound 107], for which the IC50 was over 10000 nM at Human Calpain 2/NS1, over 10000 nM on Human Calpain 1/NS1 and 3000 to 10000 nM on Human Calpain 9/NS1.

With `CCCCNC(=O)C(=O)[C@@H]1C/C=C/COCCOCc2ccccc2C(=O)N1` [Compound 64, (S,E)-N-butyl-2-oxo-2-(12-oxo-1,3,4,6,9,10,11,12-octahydrobenzo[f][1,4]dioxa[9]azacyclotetradecin-10-yl)acetamide], the IC50 was over 10000 nM at Human Calpain 2/NS1, over 10000 nM on Human Calpain 1/NS1 and under 3000 nM at Human Calpain 9/NS1.

Turning to `C#CCNC(=O)C(=O)C1CCCCOCCOCc2ccccc2C(=O)N1` (stereo not drawn) [Compound 85, 2-Oxo-2-(12-oxo-1,3,4,6,7,8,9,10,11,12-decahydrobenzo[f][1,4]dioxa[9]aza-cyclotetradecin-10-yl)-N-(prop-2-yn-1-yl)acetamide], the IC50 is over 10000 nM on Human Calpain 2/NS1, over 10000 nM on Human Calpain 1/NS1 and 3000 to 10000 nM at Human Calpain 9/NS1.
